Measured values: patent US5385842A, “Anthraquinones as inhibitors of sulfide production from sulfate-reducing bacteria” (E. I. Du Pont de Nemours and Company, priority 1993, dated 1995)

The compounds below were run on Desulfovibrio desulfuricans G100A (assay: microbe, parasite or virus in culture). Conditions: 10 ppm.
Format: cell-based
In the case of “1,1'-Iminobis[4-amino]9,10-anthracenedione, sulfonated [Acid black 48]”, the “% Inhib. (inhibition of sulfide production)” value is reported as 13.8%.
With “1-Amino-4[4-[[4-chloro-6-[2,3 or 4-sulfophenyl]-amino]-1,3,5-triazin-2-yl]amino]-3-sulfophenyl]-amino]-9,10-dihyro-9,10-dioxo-2-anthracenesulfonic acid [Reactive blue 2]” the “% Inhib. (inhibition of sulfide production)” value was 17.5%.

Same assay, conditions: Desulfovibrio desulfuricans, G100A, read-out: % Inhib. (inhibition of sulfide production)
`CC(=O)OC1C=CCC2C(=O)c3cccc(O)c3C(=O)C12` (racemic) [(+,-)-1-Acetoxy-8-hydroxy-1,4,4a,9a-tetrahydroanthraquinone] gave an inhibition at 10 ppm of 28.1%.
`O=C1c2ccccc2C(=O)c2c1cccc2-c1cccc2c1C(=O)c1ccccc1C2=O` [1,1'-Bianthraquinone, [1,1'-Bianthracene]-9,9'10,10'-tetrone] was tested, and the inhibition at 30 ppm was 12.9%.
`O=C1c2ccccc2C(=O)c2c([N+](=O)[O-])ccc(Nc3ccc([N+](=O)[O-])c4c3C(=O)c3ccccc3C4=O)c21` [1,1'-Iminobis(4-nitro-9,10-anthracenedione)] was tested, and the inhibition at 30 ppm was 5.7%.
Compound `Nc1ccc2c(c1N)C(=O)c1ccccc1C2=O` [1,2-Diaminoanthraquinone] has an inhibition at 10 ppm of 28.9%.
`O=C1c2ccccc2C(=O)C2CC=CCC12` (centres unmarked) [1,4,4a,9a-Tetrahydroanthraquinone] was tested, and the inhibition at 10 ppm was 0 to 7%.
In the case of `O=C1c2c(Cl)ccc(Cl)c2C(=O)c2c(Cl)ccc(Cl)c21` [1,4,5,8-Tetrachloroanthraquinone], the inhibition at 30 ppm is reported as 50.6%.
In the case of `CNc1ccc(NC)c2c1C(=O)c1ccccc1C2=O` [1,4-Bis(methylamino)-anthraquinone], the inhibition at 30 ppm is reported as 8.6%.
In the case of `CCc1cc(CC)c(Nc2ccc(Nc3c(CC)cc(CC)cc3CC)c3c2C(=O)c2ccccc2C3=O)c(CC)c1` [1,4-Bis[(2,4,6-triethylphenyl)amino]-9,10-anthracenedione], the inhibition at 30 ppm is reported as 4.3%.
With `CC(C)Nc1ccc(NC(C)C)c2c1C(=O)c1ccccc1C2=O` [1,4-Di(isopropylamino)anthraquinone, 1,4-Bis[(1-methylethyl)amino]-9,10-anthracenedione] the inhibition at 30 ppm was 5%.
Work on `Nc1c(OCCOc2ccccc2)c(OCCOc2ccccc2)c(N)c2c1C(=O)c1ccccc1C2=O` [1,4-Diamino-2,3-bis(2-phenoxyethoxy)anthraquinone] yielded an inhibition at 30 ppm of 7.8%.
`Nc1ccc(N)c2c1C(=O)c1cccc([N+](=O)[O-])c1C2=O` [1,4-Diamino-5-nitroanthraquinone] showed an inhibition at 30 ppm of 2.7 to 3%.
For `Nc1ccc(N)c2c1C(=O)c1ccccc1C2=O` [1,4-Diaminoanthraquinone], the inhibition at 10 ppm was 27.5%.
`O=C1c2ccccc2C(=O)c2c(O)ccc(O)c21` [1,4-Dihydroxyanthraquinone] was tested, and the inhibition at 30 ppm was 5.2%.
`Cc1ccc(C)c2c1C(=O)c1ccccc1C2=O` [1,4-Dimethylanthraquinone] showed an inhibition at 30 ppm of 5.2%.
`Nc1ccc(O)c2c1C(=O)c1c(O)ccc(N)c1C2=O` [1,5-Diamino-4,8-dihydroxyanthraquinone] gave an inhibition at 30 ppm of 2.6%.
For `O=C(Nc1cccc2c1C(=O)c1cccc(NC(=O)c3ccccc3)c1C2=O)c1ccccc1` [1,5-Dibenzamidoanthraquinone, N,N'-(9,10-Dihydro-9,10-dioxo-1,5-anthracenediyl)-bisbenzamide], the inhibition at 30 ppm was 0%.
With `O=C1c2cccc(Cl)c2C(=O)c2cccc(Cl)c21` [1,5-Dichloroanthraquinone] the inhibition at 30 ppm was 100%.
`O=C1c2cccc(O)c2C(=O)c2cccc(O)c21` [1,5-Dihydroxyanthraquinone] was tested, and the inhibition at 10 ppm was 31%.
For `O=C1c2cccc(OCc3ccccc3)c2C(=O)c2c(OCc3ccccc3)cccc21` [1,8-Dibenzyloxyanthraquinone, 1,8-Bis(phenylmethoxy)-9,10-anthracenedione], the inhibition at 30 ppm was 4.5%.
For `O=C1c2cccc(Cl)c2C(=O)c2c(Cl)cccc21` [1,8-Dichloroanthraquinone], the inhibition at 30 ppm was 3.9%.
`Oc1cccc2cc3cccc(O)c3c(O)c12` [1,8-Dihydroxyanthranol, 1,8-Dihydroxy-9-anthranol] was tested, and the inhibition at 30 ppm was 88.3%.
